The record followed here is ChEMBL document CHEMBL1137281, “Synthesis and biological evaluation of copper (II) complexes of sterically hindered o-aminophenol derivatives as antimicrobial agents” (2006).

Common to all, as to format: functional
In one test the test system is Pseudomonas aeruginosa. The experiment in a line: Antimicrobial activity against Pseudomonas aeruginosa.
The test system of another test is Serratia marcescens. The experiment in a line: Antimicrobial activity against Serratia marcescens.
In another test the test system is Escherichia coli. Nature of the test: Antibacterial activity against Escherichia coli.
The subject of a further test is Bacillus subtilis. Nature of the test: Antibacterial activity against Bacillus subtilis.
The subject of a further test is Micrococcus luteus. Nature of the test: Antimicrobial activity against Sarcina lutea.
The test system of test [1] is Staphylococcus saprophyticus. Nature of the test: Antibacterial activity against Staphylococcus saprophyticus.
Another test concerns Cyberlindnera jadinii. Nature of the test: Antimicrobial activity against Candida utilis. To be noted: Williopsis jadinii.
The next test deals with Candida albicans. Nature of the test: Antimicrobial activity against Candida albicans.
A further test concerns Candida boidinii. Nature of the test: Antimicrobial activity against Candida boidinii.
The next test deals with Komagataella pastoris. Nature of the test: Antimicrobial activity against Pichia pastoris.
A further test has as its system Papiliotrema laurentii. The experiment in a line: Antifungal activity against Cryptococcus laurentii.
The next test relates to Lipomyces lipofer. The experiment in a line: Antimicrobial activity against Lipomyces lipofer.
Test [2] in a line: Antimicrobial activity against Hansenula sp. To be noted: Pichia.
In the next test the test system is Saccharomyces cerevisiae. The experiment in a line: Antimicrobial activity against Saccharomyces cerevisiae.
For a further test, the system named is Rhodotorula mucilaginosa. Nature of the test: Antimicrobial activity against Rhodotorula rubra.
The subject of the next test is Aspergillus niger. Nature of the test: Antifungal activity against Aspergillus niger.

The structures appear in SMILES notation. Converted amounts (≈) assume the structure as drawn.

As usually defined, the MIC is the lowest concentration found to suppress growth. The low end stands for greater potency, the high end for weaker potency. For the molecule `CC(C)(C)c1cc(Nc2ccccc2)c(O)c(C(C)(C)C)c1`, the MIC (against Pseudomonas aeruginosa; in the test with Serratia marcescens; with Escherichia coli; with Bacillus subtilis; with Micrococcus luteus; in test [1]) was greater than 50 µg/mL each time. Besides, the MIC against Cyberlindnera jadinii, in the test with Candida albicans, against Candida boidinii, in the test on Komagataella pastoris, in the test with Papiliotrema laurentii and with Lipomyces lipofer was greater than 50 µg/mL each time. Further, the MIC (in test [2]; in the test on Saccharomyces cerevisiae; against Rhodotorula mucilaginosa; in the test with Aspergillus niger) was greater than 50 µg/mL each time.

`CC(C)(C)c1cc(N)c(O)c(C(C)(C)C)c1`: the MIC was greater than 50 µg/mL against Pseudomonas aeruginosa; greater than 50 µg/mL against Serratia marcescens; greater than 50 µg/mL against Escherichia coli; 25 µg/mL (≈ 113 µM) with Bacillus subtilis; 12.5 µg/mL (≈ 56.5 µM) in the test with Micrococcus luteus; 12.5 µg/mL (≈ 56.5 µM) in test [1]. Besides, the MIC against Cyberlindnera jadinii is greater than 50 µg/mL; in the test on Candida albicans it was greater than 50 µg/mL; against Candida boidinii, greater than 50 µg/mL; in the test on Komagataella pastoris, 6.25 µg/mL (≈ 28.2 µM); with Papiliotrema laurentii it was 6.25 µg/mL (≈ 28.2 µM); with Lipomyces lipofer it was 6.25 µg/mL (≈ 28.2 µM). In addition, the MIC in [2] is 6.25 µg/mL (≈ 28.2 µM); against Saccharomyces cerevisiae it was 6.25 µg/mL (≈ 28.2 µM); in the test with Rhodotorula mucilaginosa, 50 µg/mL (≈ 226 µM); against Aspergillus niger, greater than 50 µg/mL.

Consider `Nc1ccccc1O` [QUESTIOMYCIN B], for which the MIC was greater than 50 µg/mL against Pseudomonas aeruginosa; greater than 50 µg/mL with Serratia marcescens; greater than 50 µg/mL against Escherichia coli; greater than 25 µg/mL with Bacillus subtilis; greater than 50 µg/mL in test [1]; greater than 50 µg/mL in the test with Cyberlindnera jadinii. Further, the minimal inhibitory concentration (MIC) (with Candida albicans; against Candida boidinii; with Komagataella pastoris; in test [2]; in the test on Saccharomyces cerevisiae; in the test with Aspergillus niger) was greater than 50 µg/mL each time.
